The supplement of paper PMC10307832

What was measured:
Experiment in all cases: relative viability (nuclei count vs DMSO), 5 days (fraction); higher = more cells survive
KIN001-266 + Pictilisib = compound: CCN1CCC(CC1)N2C=C(N=N2)CNC3=CC4=C(C(=CN=C4C(=C3)Cl)C#N)NC5=CC(=C(C=C5)F)Cl [KIN001-266] + CS(=O)(=O)N1CCN(Cc2cc3nc(-c4cccc5[nH]ncc45)nc(N4CCOCC4)c3s2)CC1 [Pictilisib] (partner 1 µM)
In short: (§1)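 Lung cancer cell lines were pin-tool dosed in 1536-well plates on the day after seeding, with either a lone drug or a fixed anchor-drug dose plus five library-drug doses (not always all listed) in √10 steps. Nuclei were counted on 4× images after 5 days. Relative viability is the ratio of treated-well to vehicle-well nuclei counts, with each value a median of duplicate plates.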

KIN001-266 + Crizotinib = compound: CCN1CCC(CC1)N2C=C(N=N2)CNC3=CC4=C(C(=CN=C4C(=C3)Cl)C#N)NC5=CC(=C(C=C5)F)Cl [KIN001-266] + C[C@@H](Oc1cc(-c2cnn(C3CCNCC3)c2)cnc1N)c1c(Cl)ccc(F)c1Cl [Crizotinib] (partner 1 µM)
In short: as §1

KIN001-266 + Dasatinib = compound: CCN1CCC(CC1)N2C=C(N=N2)CNC3=CC4=C(C(=CN=C4C(=C3)Cl)C#N)NC5=CC(=C(C=C5)F)Cl [KIN001-266] + Cc1nc(Nc2ncc(C(=O)Nc3c(C)cccc3Cl)s2)cc(N2CCN(CCO)CC2)n1 [Dasatinib] (partner 0.075 µM)
In short: as §1

KIN001-266 + Vorinostat = compound: CCN1CCC(CC1)N2C=C(N=N2)CNC3=CC4=C(C(=CN=C4C(=C3)Cl)C#N)NC5=CC(=C(C=C5)F)Cl [KIN001-266] + O=C(CCCCCCC(=O)Nc1ccccc1)NO [Vorinostat] (partner 1 µM)
In short: as §1

Cell Line | relative viability (KIN001-266 + Pictilisib; first compound 0.08 µM) | relative viability (KIN001-266 + Pictilisib; first compound 0.253 µM) | relative viability (KIN001-266 + Pictilisib; first compound 2.53 µM) | relative viability (KIN001-266 + Pictilisib; first compound 8 µM) | relative viability (KIN001-266 + Crizotinib; first compound 0.08 µM) | relative viability (KIN001-266 + Crizotinib; first compound 0.253 µM) | relative viability (KIN001-266 + Crizotinib; first compound 2.53 µM) | relative viability (KIN001-266 + Crizotinib; first compound 8 µM) | relative viability (KIN001-266 + Dasatinib; first compound 0.08 µM) | relative viability (KIN001-266 + Dasatinib; first compound 0.253 µM) | relative viability (KIN001-266 + Dasatinib; first compound 0.8 µM) | relative viability (KIN001-266 + Dasatinib; first compound 2.53 µM) | relative viability (KIN001-266 + Dasatinib; first compound 8 µM) | relative viability (KIN001-266 + Vorinostat; first compound 0.08 µM) | relative viability (KIN001-266 + Vorinostat; first compound 0.253 µM) | relative viability (KIN001-266 + Vorinostat; first compound 0.8 µM) | relative viability (KIN001-266 + Vorinostat; first compound 2.53 µM) | relative viability (KIN001-266 + Vorinostat; first compound 8 µM) | relative viability (KIN001-266 + Pictilisib; first compound 0.8 µM) | relative viability (KIN001-266 + Crizotinib; first compound 0.8 µM)
ChaGo-K-1 | 1.04 | 0.852 | 0.844 | 0.703 | 1.09 | 1.12 | 1.09 | 0.982 | 0.581 | 0.58 | 0.528 | 0.512 | 0.533 | 0.792 | 0.718 | 0.737 | 0.645 | 0.535 |  | 
EKVX | 0.386 | 0.417 | 0.405 | 0.4 | 0.893 | 0.933 | 0.899 | 0.894 | 0.468 | 0.519 | 0.549 | 0.533 | 0.406 | 0.663 | 0.671 | 0.757 | 0.735 | 0.678 | 0.425 | 0.894
EMC-BAC-2 | 0.551 | 0.55 | 0.523 | 0.513 | 0.826 | 0.797 | 0.751 | 0.794 | 0.352 | 0.392 | 0.319 | 0.373 | 0.331 | 0.53 | 0.614 | 0.564 | 0.505 | 0.849 | 0.505 | 0.758
EPLC-272H | 0.349 | 0.336 | 0.265 | 0.289 | 0.939 | 0.862 | 0.943 | 0.656 | 0.467 | 0.324 | 0.333 | 0.421 | 0.234 | 0.417 | 0.662 | 0.621 | 0.429 | 0.384 | 0.305 | 0.752
